From publication PMC9469100, “Turning Nonselective Inhibitors of Type I Protein Arginine Methyltransferases into Potent and Selective Inhibitors of Protein Arginine Methyltransferase 4 through a Deconstruction–Reconstruction and Fragment-Growing Approach” (Journal of Medicinal Chemistry, 2022)
Entries after “also recorded” stand apart in the source; their conditions may differ.

Assays:
EZH2 complex = target: T1, EZH2 complex (Homo sapiens, UniProt Q15910); experiment: HotSpot KMT activity assay, EZH2; format: biochemical; conditions: mean ± SD, two experiments, read-out: % enzyme residual activ. after treatment with 12h, 1 µM, EZH2
T1 construct: including EZH2 residues 2–746, AEBP2 2–517; His (N); purchased Reaction Biology Corporation
Description: (§1) Then, ^3H-SAM (final concentration 1 μM) was delivered into the reaction mixture to initiate the reaction. After incubation for 60 min at 30 °C, the reaction mixture was delivered to filter-paper for detection (as assessed by scintillation). […] No inhibitor control (DMSO) was considered as 100% enzyme activity. Data were analyzed using Excel and GraphPad Prism 6.0 software (GraphPad Software Inc., San Diego, CA). Values obtained for each compound are mean ± SD determined for two separate experiments.

MLL1 complex = target: T2, MLL1 complex (Homo sapiens, UniProt Q03164); experiment: HotSpot KMT activity assay, MLL1; format: biochemical; conditions: 1 µM; mean ± SD, two experiments; read-out: % enzyme residual activ. after treatment with 12h, 1 µM, MLL1
T2 construct: including MLL1 residues 3745–3969, C-terminus; His (N); purchased Reaction Biology Corporation
Description: as §1

SET7/9 = target: T3, SET7/9 (Homo sapiens, UniProt Q8WTS6); experiment: HotSpot KMT activity assay, SET7/9; format: biochemical; conditions: 1 µM; mean ± SD, two experiments; read-out: % enzyme residual activ. after treatment with 12h, 1 µM, SET7/9
T3 construct: SET7/9 (residues 2–366, C-terminus); with a N-terminal GST-tag and a C-terminal His-tag; GST (N); His (C); purchased Reaction Biology Corporation
Description: as §1

[1] = system: panel of eight lysine methyltransferases (KMTs); experiment: Selectivity assay against a panel of KMTs; format: biochemical, human; conditions: 12h at 1 and 10 μM; ASH1L, EZH2, MLL1, SET7/9, SETD8, SUV39H2, SUV420H1, DOT1L
Description: as §1

PRMT4 (MCF7 cells) = experiment: Western blot with pan-PRMT4 substrate antibody, MCF7; conditions: 12h 10 and 50 μM, TP-064 10 μM; 4 and 8 days; PRMT4sub immunoblot
Description: HEK293T or MCF7 cells were treated with different compounds and then harvested and lysed at the indicated time, and the cell lysates were applied to Western blot analysis. In brief, cells were harvested and washed three times with cold PBS, and then cell lysis buffer (50 mM Tris-HCl, pH 7.5, 150 mM NaCl, 1% Nonidet P-40, 0.1% SDS, 1% sodium deoxycholate, 5 mM EDTA, supplemented with proteinase inhibitor mixture) was added to obtain the cell lysates. Cell debris was pelleted and discarded, whereas the supernatant was kept. Protein samples were added with SDS loading buffer and boiled for 10 min, followed by SDS-PAGE. Then the proteins were transferred to a PVDF membrane. The membrane was blocked with 5% fat-free milk for 1 h at room temperature and then incubated with primary antibodies (antihistone H3, Abcam, #ab18521; pan-PRMT4 substrate antibody, made in-house) at 4 °C overnight. The blot was then washed three times with PBST and incubated with secondary antibodies for 1 h at room temperature. After being washed three times with PBST, the membrane was incubated with ECL reagent, and the signals were detected on X-ray film.
The anti-PRMT4 substrate antibody was raised against the R388 site in the transcription factor NFIB.

T3 sequence (Q8WTS6 2-366): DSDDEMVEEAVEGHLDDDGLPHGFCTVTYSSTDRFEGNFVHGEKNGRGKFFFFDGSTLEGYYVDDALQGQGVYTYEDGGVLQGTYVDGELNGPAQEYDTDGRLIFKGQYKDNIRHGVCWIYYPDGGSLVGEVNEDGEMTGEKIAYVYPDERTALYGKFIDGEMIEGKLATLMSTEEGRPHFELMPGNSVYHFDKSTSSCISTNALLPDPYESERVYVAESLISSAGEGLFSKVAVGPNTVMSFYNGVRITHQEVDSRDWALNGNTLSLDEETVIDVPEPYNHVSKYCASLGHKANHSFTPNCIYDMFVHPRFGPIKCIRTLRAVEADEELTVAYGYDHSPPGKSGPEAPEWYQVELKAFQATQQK
T1 sequence (Q15910 2-746): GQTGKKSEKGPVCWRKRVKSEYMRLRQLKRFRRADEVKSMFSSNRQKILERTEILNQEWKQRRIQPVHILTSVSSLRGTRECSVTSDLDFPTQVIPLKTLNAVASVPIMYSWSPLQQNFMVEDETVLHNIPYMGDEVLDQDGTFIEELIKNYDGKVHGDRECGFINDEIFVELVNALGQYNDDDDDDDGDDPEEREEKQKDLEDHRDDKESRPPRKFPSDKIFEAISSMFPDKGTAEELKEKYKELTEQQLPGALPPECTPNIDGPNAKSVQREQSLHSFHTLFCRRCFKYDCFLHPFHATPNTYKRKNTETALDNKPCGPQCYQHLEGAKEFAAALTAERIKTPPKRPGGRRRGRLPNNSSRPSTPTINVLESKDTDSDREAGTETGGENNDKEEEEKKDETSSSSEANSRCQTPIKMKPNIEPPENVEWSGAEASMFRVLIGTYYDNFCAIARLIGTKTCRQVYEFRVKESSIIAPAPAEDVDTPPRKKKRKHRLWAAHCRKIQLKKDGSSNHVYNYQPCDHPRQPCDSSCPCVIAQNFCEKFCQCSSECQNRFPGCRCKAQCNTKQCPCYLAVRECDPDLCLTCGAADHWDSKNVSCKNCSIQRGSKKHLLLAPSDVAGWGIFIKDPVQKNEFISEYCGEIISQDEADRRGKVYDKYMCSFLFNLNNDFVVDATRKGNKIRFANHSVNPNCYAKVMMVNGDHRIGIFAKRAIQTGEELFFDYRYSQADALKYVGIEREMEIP
T1 sequence (Q6ZN18 2-517 partner limits assumed): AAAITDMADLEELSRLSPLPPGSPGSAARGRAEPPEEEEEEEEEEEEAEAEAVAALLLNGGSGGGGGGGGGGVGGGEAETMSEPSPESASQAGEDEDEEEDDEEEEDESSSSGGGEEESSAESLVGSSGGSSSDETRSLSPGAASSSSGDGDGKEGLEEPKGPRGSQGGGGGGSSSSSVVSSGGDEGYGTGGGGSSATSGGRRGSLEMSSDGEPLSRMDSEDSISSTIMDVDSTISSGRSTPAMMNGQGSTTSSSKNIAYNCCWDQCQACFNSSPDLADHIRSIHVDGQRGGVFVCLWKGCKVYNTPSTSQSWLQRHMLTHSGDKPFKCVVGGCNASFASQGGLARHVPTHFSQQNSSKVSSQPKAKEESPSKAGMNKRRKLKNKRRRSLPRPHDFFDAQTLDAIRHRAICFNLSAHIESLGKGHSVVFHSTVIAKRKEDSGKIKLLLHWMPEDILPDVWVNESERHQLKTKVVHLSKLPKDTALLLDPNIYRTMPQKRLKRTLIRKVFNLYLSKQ
T1 sequence (O75530 2-441 partner limits assumed): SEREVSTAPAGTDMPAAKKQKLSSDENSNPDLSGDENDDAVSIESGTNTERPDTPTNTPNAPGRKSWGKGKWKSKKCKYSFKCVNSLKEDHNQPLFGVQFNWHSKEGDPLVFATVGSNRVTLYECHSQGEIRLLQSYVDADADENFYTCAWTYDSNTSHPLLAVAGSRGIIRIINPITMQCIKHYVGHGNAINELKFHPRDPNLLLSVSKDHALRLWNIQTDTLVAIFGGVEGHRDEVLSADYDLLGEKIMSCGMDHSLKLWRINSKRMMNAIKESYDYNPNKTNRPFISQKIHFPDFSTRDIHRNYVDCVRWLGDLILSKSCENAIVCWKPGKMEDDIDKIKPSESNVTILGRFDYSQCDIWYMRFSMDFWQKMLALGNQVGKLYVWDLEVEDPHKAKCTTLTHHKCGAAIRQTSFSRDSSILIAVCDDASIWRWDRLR
T1 sequence (Q09028 2-425 partner limits assumed): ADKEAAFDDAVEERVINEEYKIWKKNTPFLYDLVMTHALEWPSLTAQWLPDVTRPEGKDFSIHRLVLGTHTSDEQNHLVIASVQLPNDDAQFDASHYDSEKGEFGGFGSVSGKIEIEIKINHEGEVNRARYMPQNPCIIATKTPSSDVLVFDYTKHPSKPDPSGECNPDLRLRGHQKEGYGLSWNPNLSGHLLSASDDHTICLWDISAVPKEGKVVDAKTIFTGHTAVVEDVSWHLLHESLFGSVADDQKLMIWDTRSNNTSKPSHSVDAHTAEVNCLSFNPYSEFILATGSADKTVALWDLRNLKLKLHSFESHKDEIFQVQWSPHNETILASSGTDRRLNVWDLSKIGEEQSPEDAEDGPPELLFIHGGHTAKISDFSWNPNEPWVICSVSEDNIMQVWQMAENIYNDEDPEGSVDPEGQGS
T1 sequence (Q15022 2-739 partner limits assumed): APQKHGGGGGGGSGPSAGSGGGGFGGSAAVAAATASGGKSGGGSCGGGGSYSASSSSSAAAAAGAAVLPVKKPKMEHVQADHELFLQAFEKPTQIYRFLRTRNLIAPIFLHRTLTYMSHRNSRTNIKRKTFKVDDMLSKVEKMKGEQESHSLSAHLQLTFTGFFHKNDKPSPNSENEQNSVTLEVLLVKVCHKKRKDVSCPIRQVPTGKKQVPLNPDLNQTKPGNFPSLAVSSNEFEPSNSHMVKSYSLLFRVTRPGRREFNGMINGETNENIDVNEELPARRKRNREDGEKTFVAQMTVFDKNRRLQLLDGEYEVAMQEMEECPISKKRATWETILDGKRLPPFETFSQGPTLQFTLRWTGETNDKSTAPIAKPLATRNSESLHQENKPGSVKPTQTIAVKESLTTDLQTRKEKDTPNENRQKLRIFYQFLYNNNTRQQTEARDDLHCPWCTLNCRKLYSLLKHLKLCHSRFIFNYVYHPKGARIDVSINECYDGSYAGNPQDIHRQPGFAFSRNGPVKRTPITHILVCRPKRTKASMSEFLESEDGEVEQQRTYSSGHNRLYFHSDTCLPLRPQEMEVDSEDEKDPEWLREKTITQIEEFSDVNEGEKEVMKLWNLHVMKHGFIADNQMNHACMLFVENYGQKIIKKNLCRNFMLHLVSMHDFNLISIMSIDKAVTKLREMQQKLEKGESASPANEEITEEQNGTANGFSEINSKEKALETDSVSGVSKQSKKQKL

SMILES: COC(=O)c1cc(O)c2cc(NC(=O)NCCCCNC(=N)NC/C=C/[C@H]3O[C@@H](n4cnc5c(N)ncnc54)[C@H](O)[C@@H]3O)ccc2c1 [12h, Methyl 6-(3-(4-(3-((E)-3-((2R,3S,4R,5R)-5-(6-Amino-9H-purin-9-yl)-3,4-dihydroxytetrahydrofuran-2-yl)allyl)guanidino)butyl)ureido)-4-hydroxy-2-naphthoate]
- remaining activity at 1 µM (EZH2 complex): 84.4 ± 5.51%
- remaining activity at 1 µM (MLL1 complex): 102 ± 3.11%
- remaining activity at 1 µM (SET7/9): 112 ± 2.25%
- inhibition of the KMT panel [1]: none of the enzymes was inhibited; also recorded: no inhibiting effect against these enzymes
- arginine methylation levels in MCF7 cells (PRMT4 (MCF7 cells)): evident reduction
